Measured values taken from PubChem BioAssay (NCI).
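Test compounds were applied to cells in 96-well plates for 48 hours at 5 doses. GI50 = concentration required for 50% inhibition of growth. At the TGI there is no net growth.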

system: NCI-H226 lung; assay: NCI-60 cell line screen, 48 h

SMILES | GI50 [µM] | TGI [µM]
CCOC(=O)Nc1nc2ccc(OCC)cc2s1 | > 100 | > 100
NS(=O)(=O)c1ccccc1C(=O)N/N=C(\c1nc2ccc([N+](=O)[O-])cc2[nH]c1=O)C(O)c1ccc([N+](=O)[O-])cc1 (stereo not given) |  | > 100
COc1ccc2c(c1)C(=O)/C(=C/c1ccc(OCC(=O)Nc3nccs3)cc1)O2 | 12.8 | 34.8
Cc1cnc(NC(=O)C(Cc2ccccc2)NC(=O)c2ccccc2)s1 (stereo not given) | 2.04 | 7.05
CC(C)c1ccc(C(C)C(=O)N(CC2=C(C(C)c3ccccn3)c3ccccc3C2)C(C)C)cc1 (stereo not given) | 2.68 | 21.7
CSc1ccc(/C=C2\CN(C)C/C(=C\c3ccc(SC)cc3)C2=O)cc1 |  | > 100
Cc1nc2c(nc1C)C(=O)c1ccccc1C2=O |  | 13.3
O=[N+]([O-])c1cnc(Sc2ccncn2)s1 | 8.37 | 34
O=C(Nc1ccc(I)cc1)c1cc([N+](=O)[O-])ccc1O | 6.19 | 80.4
Cc1cc(=O)n2[nH]c(-c3ccc(C(C)(C)C)cc3)cc2n1 | 5.28 | > 100
O=C(O)c1cc(C(=O)O)cc(N2C(=O)c3ccccc3C2=O)c1 |  | > 100
COc1c2ccoc2c(/C=C/C=O)c2oc(-c3ccccc3)cc(=O)c12 | 4.14 | 20.4

system: HL-60(TB) leukemia; assay: NCI-60 cell line screen, 48 h

SMILES | GI50 [µM] | TGI [µM]
CCOC(=O)Nc1nc2ccc(OCC)cc2s1 | 7.56 | > 100
NS(=O)(=O)c1ccccc1C(=O)N/N=C(\c1nc2ccc([N+](=O)[O-])cc2[nH]c1=O)C(O)c1ccc([N+](=O)[O-])cc1 (stereo not given) |  | > 100
COc1ccc2c(c1)C(=O)/C(=C/c1ccc(OCC(=O)Nc3nccs3)cc1)O2 | 0.187 | 0.413
Cc1cnc(NC(=O)C(Cc2ccccc2)NC(=O)c2ccccc2)s1 (stereo not given) | 21.2 | 51.5
CC(C)c1ccc(C(C)C(=O)N(CC2=C(C(C)c3ccccn3)c3ccccc3C2)C(C)C)cc1 (stereo not given) | 2.15 | 5.44
CSc1ccc(/C=C2\CN(C)C/C(=C\c3ccc(SC)cc3)C2=O)cc1 |  | > 100
Cc1nc2c(nc1C)C(=O)c1ccccc1C2=O |  | 13.7
O=[N+]([O-])c1cnc(Sc2ccncn2)s1 | 1.69 | 4.18
O=C(Nc1ccc(I)cc1)c1cc([N+](=O)[O-])ccc1O | 5.44 | 57.8
Cc1cc(=O)n2[nH]c(-c3ccc(C(C)(C)C)cc3)cc2n1 | 6.9 | 93.8
O=C(O)c1cc(C(=O)O)cc(N2C(=O)c3ccccc3C2=O)c1 |  | > 100
COc1c2ccoc2c(/C=C/C=O)c2oc(-c3ccccc3)cc(=O)c12 | 2.33 | 5.62

system: OVCAR-4 ovarian; assay: NCI-60 cell line screen, 48 h

SMILES | GI50 [µM] | TGI [µM]
CCOC(=O)Nc1nc2ccc(OCC)cc2s1 | > 82.5 | > 100
NS(=O)(=O)c1ccccc1C(=O)N/N=C(\c1nc2ccc([N+](=O)[O-])cc2[nH]c1=O)C(O)c1ccc([N+](=O)[O-])cc1 (stereo not given) |  | > 100
COc1ccc2c(c1)C(=O)/C(=C/c1ccc(OCC(=O)Nc3nccs3)cc1)O2 | 2.26 | 14.5
Cc1cnc(NC(=O)C(Cc2ccccc2)NC(=O)c2ccccc2)s1 (stereo not given) | 16.3 | > 100
CC(C)c1ccc(C(C)C(=O)N(CC2=C(C(C)c3ccccn3)c3ccccc3C2)C(C)C)cc1 (stereo not given) | 3.07 | 86.7
CSc1ccc(/C=C2\CN(C)C/C(=C\c3ccc(SC)cc3)C2=O)cc1 |  | > 100
Cc1nc2c(nc1C)C(=O)c1ccccc1C2=O |  | 14.1
O=[N+]([O-])c1cnc(Sc2ccncn2)s1 | 1.76 | 3.27
O=C(Nc1ccc(I)cc1)c1cc([N+](=O)[O-])ccc1O | 4.57 | 90.8
Cc1cc(=O)n2[nH]c(-c3ccc(C(C)(C)C)cc3)cc2n1 | 12.7 | > 100
O=C(O)c1cc(C(=O)O)cc(N2C(=O)c3ccccc3C2=O)c1 |  | > 100
COc1c2ccoc2c(/C=C/C=O)c2oc(-c3ccccc3)cc(=O)c12 | 3.2 | > 100

system: U251 CNS; assay: NCI-60 cell line screen, 48 h

SMILES | GI50 [µM] | TGI [µM]
CCOC(=O)Nc1nc2ccc(OCC)cc2s1 | 25.5 | > 100
NS(=O)(=O)c1ccccc1C(=O)N/N=C(\c1nc2ccc([N+](=O)[O-])cc2[nH]c1=O)C(O)c1ccc([N+](=O)[O-])cc1 (stereo not given) |  | > 100
COc1ccc2c(c1)C(=O)/C(=C/c1ccc(OCC(=O)Nc3nccs3)cc1)O2 | 0.598 | 22.4
Cc1cnc(NC(=O)C(Cc2ccccc2)NC(=O)c2ccccc2)s1 (stereo not given) | 5.25 | 19.3
CC(C)c1ccc(C(C)C(=O)N(CC2=C(C(C)c3ccccn3)c3ccccc3C2)C(C)C)cc1 (stereo not given) | 2.85 | 13.6
CSc1ccc(/C=C2\CN(C)C/C(=C\c3ccc(SC)cc3)C2=O)cc1 |  | 33.1
Cc1nc2c(nc1C)C(=O)c1ccccc1C2=O |  | 34.6
O=[N+]([O-])c1cnc(Sc2ccncn2)s1 | 3.49 | 11.5
O=C(Nc1ccc(I)cc1)c1cc([N+](=O)[O-])ccc1O | 6.4 | 66.1
Cc1cc(=O)n2[nH]c(-c3ccc(C(C)(C)C)cc3)cc2n1 | 3.24 | 64.5
O=C(O)c1cc(C(=O)O)cc(N2C(=O)c3ccccc3C2=O)c1 |  | > 100
COc1c2ccoc2c(/C=C/C=O)c2oc(-c3ccccc3)cc(=O)c12 | 3.06 | 12.9

system: A549 NSCLC; assay: NCI-60 cell line screen, 48 h

SMILES | GI50 [µM] | TGI [µM]
CCOC(=O)Nc1nc2ccc(OCC)cc2s1 | 7.2 | > 100
NS(=O)(=O)c1ccccc1C(=O)N/N=C(\c1nc2ccc([N+](=O)[O-])cc2[nH]c1=O)C(O)c1ccc([N+](=O)[O-])cc1 (stereo not given) |  | > 100
COc1ccc2c(c1)C(=O)/C(=C/c1ccc(OCC(=O)Nc3nccs3)cc1)O2 | 1.76 | 16
Cc1cnc(NC(=O)C(Cc2ccccc2)NC(=O)c2ccccc2)s1 (stereo not given) | 3.32 | 15.8
CC(C)c1ccc(C(C)C(=O)N(CC2=C(C(C)c3ccccn3)c3ccccc3C2)C(C)C)cc1 (stereo not given) | 3.85 | > 100
CSc1ccc(/C=C2\CN(C)C/C(=C\c3ccc(SC)cc3)C2=O)cc1 |  | > 100
Cc1nc2c(nc1C)C(=O)c1ccccc1C2=O |  | 3.41
O=[N+]([O-])c1cnc(Sc2ccncn2)s1 | 10.1 | 27.1
O=C(Nc1ccc(I)cc1)c1cc([N+](=O)[O-])ccc1O | 11.6 | > 100
Cc1cc(=O)n2[nH]c(-c3ccc(C(C)(C)C)cc3)cc2n1 | 11.6 | > 100
O=C(O)c1cc(C(=O)O)cc(N2C(=O)c3ccccc3C2=O)c1 |  | > 100
COc1c2ccoc2c(/C=C/C=O)c2oc(-c3ccccc3)cc(=O)c12 | 21.5 | > 100
